In paper PMC9452769 (Molecular Plant Pathology, 2022) one finds Kd data, which are given here for one compound.

The target in the test is T1, OxyR (OxyR-His) (Xanthomonas campestris, UniProt Q8PCA2).
T1 sequence (Q8PCA2 1-313): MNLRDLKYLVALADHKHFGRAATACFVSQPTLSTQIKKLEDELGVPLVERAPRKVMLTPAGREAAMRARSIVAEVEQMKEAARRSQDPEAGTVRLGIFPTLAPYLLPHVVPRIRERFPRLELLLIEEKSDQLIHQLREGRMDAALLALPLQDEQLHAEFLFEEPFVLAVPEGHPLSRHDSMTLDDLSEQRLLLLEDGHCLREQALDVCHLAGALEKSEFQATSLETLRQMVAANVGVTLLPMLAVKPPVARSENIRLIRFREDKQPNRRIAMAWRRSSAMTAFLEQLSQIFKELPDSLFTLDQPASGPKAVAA
Description: microscale thermophoresis. Format: binding.

As usually defined, the Kd is the free concentration of one partner at which half of the binding sites on the other are occupied at equilibrium, for simple one-to-one binding. For the compound `C[S@@+]([O-])CCCCN=C=S` [sulforaphane], the equilibrium dissociation constant (Kd) was found to be 325 ± 105 nM.
